# How the values were obtained:
# WT and TRPV1−/− hearts = experiment: OLDA-induced CGRP and SP release from hearts (radioimmunoassay); design: species or system mouse
# WT hearts [1] = experiment: Preconditioning (PC) protection against I/R in Langendorff hearts with receptor antagonists, wild type; design: species or system mouse; settings: for effect on PC-induced cardiac protection (LVEDP, LVDP, CF, +dP/dt, −dP/dt) in WT hearts: CAPZ 10^−7 M, CGRP8-37 10^−6 M, RP67580 10^−7 M
# Experimental: (§1) Male TRPV1 gene knockout (TRPV1-/-) strain B6.129S[…][…]^tm1Jul and matching control wild type (WT) strain C57BL/6J mice were used (Jackson Laboratory, Bar Harbor, Me.). Mice were heparinized (500 U/kg i.p.) and anesthetized with pentobarbital sodium (50 mg/kg i.p.). […] The distal end of the catheter was connected to a […] Performance Analyzer via a pressure transducer. Coronary flow (CF) was continuously measured using an ultrasonic flow probe placed in the aortic perfusion line. Hearts were paced at 400 bpm except during ischemic PC and sustained global ischemia to avoid inducing excessive ventricular tachyarrhythmia during reperfusion, and pacing was reinitiated 2 minutes after reperfusion. Left ventricular developed pressure (LVDP, peak systolic minuses LVEDP) and LV peak positive […]) during isovolumic contraction were used as indices of LV systolic function; LVEDP and the peak negative […] used as indices of LV diastolic function. […] Non-preconditioned hearts were time-matched perfused with the same duration as that of preconditioned hearts. Group 1: Controls. As normal controls (nonischemic), WT and TRPV1-/- hearts were perfused for 130 minutes. For I/R controls, WT and TRPV1-/- hearts were first perfused with Krebs-Henseleit buffer for 55 min (time-matched perfusion of the equilibration period plus the PC period), and subsequently subjected to 30 minutes of no-flow normothermic global ischemia followed by 40-minutes of reperfusion. Group 2: PC. […] The hearts were subjected to 30 minutes of no-flow normothermic global ischemia followed by 40-minutes of reperfusion as that of I/R control groups. Group 3: PC plus capsazepine (CAPZ). […] Two additional concentrations of CAPZ, 10^-6M and 10^-8 M, were used in WT hearts. An additional drug control was added. After a 20-minute equilibration period, WT hearts were perfused with CAPZ (10^-7 M) for 10 minutes without PC, followed by perfusion with Krebs-Henseleit buffer for 25 minutes (time-matched perfusion of the PC period) and then subjected to I/R. Group 4: […] Two additional concentrations of CGRP8-37, 10^-5 M and 10^-7 M, were used in WT hearts. An additional drug control of CGRP8-37 was added as that of the CAPZ control group. Group 5: PC plus RP67580. To determine the role of endogenous SP during PC, hearts from WT and TRPV1-/-mice were perfused as that of CAPZ with RP67580 (10^-7 M), a selective neurokinin-1 (NK1) receptor antagonist. Two additional concentrations of RP67580, 10^-6 M and 10^-8 M, were used in WT hearts. An additional drug control of RP67580 was added as that of the CAPZ control group.
# TRPV1−/− hearts = experiment: Preconditioning (PC) protection against I/R in Langendorff hearts with receptor antagonists, TRPV1-null; design: species or system mouse; settings: CAPZ 10^−7 M, CGRP8-37 10^−6 M, RP67580 10^−7 M
# Experimental: as §1, with “Two additional concentrations of CGRP8-37, 10^-5 M and 10^-7 M, were used in WT hearts. An additional drug control of CGRP8-37 was added as that of the CAPZ control group. Group 5: PC plus RP67580. To determine the role of endogenous SP during PC, hearts from WT and TRPV1-/-mice were perfused as that of CAPZ with RP67580 (10^-7 M), a selective neurokinin-1 (NK1) receptor antagonist. Two additional concentrations of RP67580, 10^-6 M and 10^-8 M, were used in WT hearts. An additional drug control of RP67580 was added as that of the CAPZ control group.” left out
# WT hearts [2] = experiment: Lactate dehydrogenase (LDH) release during I/R; design: species or system mouse
# Experimental: Lactate dehydrogenase (LDH) release: In addition to the measurement of cardiac function, cardiac injury was assessed by measuring LDH release. Perfusion effluent was collected during the first 10 minutes to 20 minutes of I/R and stored at […] until analyzed. Total LDH levels were determined with the use of a CytoTox 96 assay (Promega). The data were expressed as absorbance units released per milliliter per minute per gram of heart wet tissues (Turnbull et al., Am J Physiol Heart Circ Physiol 290: […]-9, 2006; herein incorporated by reference).
# male Wistar rats = experiment: Depressor effect of 20-HETE analog DSR given IV, with or without antagonists; assay type: in vivo, rat; settings: DSR 1 mg/kg with CAPZ 3 mg/kg, RP67580 4 mg/kg or CGRP 8-37 3 mg/kg
# [3] = tested on: Wistar rats fed a NS or HS diet for 10 days; experiment: MAP responses to i.v. capsaicin with or without CAPZ in urethane-anesthetized rats; assay type: in vivo, rat; settings: CGRP8-37 infusion; capsaicin 30 μg/kg
# Experimental: (§2) Surgical Preparation Rats were anesthetized with ketamine and xylazine (80 and 4 mg/kg intraperitoneally, respectively) for cannulation or with urethane (1.5 g/kg intraperitoneally) for capsaicin administration. The left jugular vein, carotid and femoral artery were cannulated under anesthesia for injection of drugs or monitoring of mean arterial pressure (MAP) and heart rate (HR).
# Each dose of injection was separated by a 30-minute interval. To determine the specificity of capsaicin, CAPZ (3 mg/kg) was administered 10 minutes before capsaicin injection in a separate group.
# [4] = tested on: Wistar rats fed a normal-salt (NS) or high-salt (HS) diet for 10 days; experiment: MAP and HR responses to i.v. bolus NADA with or without antagonists in conscious rats; assay type: in vivo, rat; settings: for prolonged depressor effect of NADA (decrease in MAP) after antagonist: NADA 4 mg/kg after CAPZ 3 mg/kg, CGRP8-37 infusion or SR141716A 3 mg/kg
# Excerpt: In brief: Wistar rats were fed a normal (NS, 0.4%) or high (HS, 4%) sodium diet for 10 days, then artery and vein were cannulated for measurement of mean arterial pressure (MAP) or for injection of drugs and collection of plasma.
# Animal Preparation: Male Wistar rats (7 weeks old, Charles River Laboratory, Wilmington, Mass.) were housed in the animal facility for 1 week before the experiment. Rats were grouped randomly and pair-fed a NS (0.4% of Na^+ by weight) or HS (4% of Na^+ by weight) diet for 10 days. The rat chow was purchased from Harlan Teklad Diets (Madison, Wis.). Drinking water was available ad libitum throughout the experiment. All protocols were in accordance with the National Institutes of Health Guidelines for the Care and Use of Laboratory Animals.
# as §2
# Three hours after surgery, baseline MAP and its response to the above-mentioned drugs were obtained with the rats fully awake and unrestrained [Wang et al., Am J Physiol 2004; 287:H1868-H[874]. NADA was injected in increasing doses (1, 4, and 10 mg/kg intravenous bolus) in 3 subgroups of rats (each group for each dose). To determine the role of TRPV1 and CB 1 receptor in NADA-induced hypotension, NADA (4 mg/kg) was injected 10 minutes or 20 minutes after intravenous injection of CAPZ (3 mg/kg) or SR141716A (3 mg/kg), respectively.
# To examine the effect of CGRP8-37 on NADA-induced hypotension, CGRP8-37 was intravenously administered at the rate of 1 mg/kg/min for 2 minutes followed by injection at the rate of 0.5 mg/kg/min for 15 minutes. NADA (4 mg/kg) was injected 1 minute after CGRPs-37 administration. The effectiveness of the dose and time frame for CGRP8-37 injection was verified by blockade of the hypotensive response to capsaicin (30 μg/kg) (n=5).
# hearts of WT mice = experiment: Langendorff perfused heart, ischemia and reperfusion (I/R) with OLDA, wild type; design: species or system mouse; settings: antagonist 1×10^−6 M
# Experimental: The following measurements were made on the two types of heart tissue: left ventricular end-diastolic pressure (LVEDP), left ventricular developed pressure (LVDP), coronary flow (CF), and left ventricular (LV) peak positive rate of pressure change/rate of time change (+dP/dt) were evaluated after I/R.
# [5] = tested on: Wistar rats (Con-NS, Con-HS, Cap-NS, Cap-HS); experiment: Natriuretic, diuretic and depressor effects of i.v. diuretics in control and capsaicin-pretreated rats on normal or high sodium diet; assay type: in vivo, rat; settings: intravenous
# Experimental: (a) Urine flow rate. (b) Urine sodium excretion. […] (c) Mean arterial pressure. […] Vehicle; trichlormethiazide.
# (a) Urine flow rate. (b) Urine sodium excretion. […] (c) Mean arterial pressure.
# (a) Urine flow rate. (b) Urine sodium excretion. […] (c) Mean arterial pressure. […] Vehicle; amiloride.
# Design and methods Neonatal Wistar rats were treated with capsaicin or vehicle. Seven-week-old male rats were treated for 2 weeks with: vehicle plus a normal (Con-NS) or high (Con-HS) sodium diet, and capsaicin pretreatment plus a normal (Cap-NS) or high (Cap-HS) sodium diet. Mean arterial pressure (MAP), renal excretory function, and protein expression determined by Western blot were performed.
# renal cortex and medulla = experiment: Neonatal capsaicin treatment plus NS or HS diet: renal superoxide, SOD and NAD(P)H oxidase subunits; design: species or system rat
# Experimental: Enhanced oxidative stress in kidneys of salt-sensitive hypertension: role of sensory nerves (Am J Physiol Heart Circ Physiol 291: H3136-H3143, 2006). To determine the mechanism(s) underlying enhanced oxidative stress in kidneys of salt-sensitive hypertension, neonatal Wistar rats were given vehicle or capsaicin (CAP, 50 mg/kg sc) on the first and second days of life. After being weaned, male rats were assigned into four groups and treated for 2 wk with the following: vehicle+a normal sodium diet (NS, 0.4%, CON-NS), vehicle+a high-sodium diet (HS, 4%, CON-HS), CAP+NS (CAP−NS), and CAP+HS (CAP−HS). […] Plasma and urinary 8-iso-prostaglandin F2alpha levels increased by approximately 40% in CON-HS and CAP−HS rats compared with their respective controls fed a NS diet (P≦0.05), and these parameters were higher in CAP−HS compared with CON-HS rats. Superoxide (O2—) levels in the renal cortex and medulla increased by approximately 45% in CAP−HS compared with CON-HS, CON-NS, and CAP−NS rats (P≦0.05). […]
# rats = experiment: Mean arterial pressure before and after left renal pelvis perfusion (LRPP) treatments; assay type: in vivo, rat; settings: for Mean arterial pressure, Treatment: after treatment; for Mean arterial pressure, Baseline: before treatment
# Excerpt: Urine flow rate (V, FIG. 3a) and urinary sodium excretion (UNaV, FIG. 3b) of the contralateral kidney are shown (n=5-6 in each group). +vs baseline and all other groups, +p<0.05.
compound,measurement,setting,value
COc1ccc2c(c[n+](C)c3c4cc5c(cc4ccc23)OCO5)c1OC [chelerythrine],effect on OLDA-increased CGRP and SP release in WT hearts,WT and TRPV1−/− hearts,blocked
CGRP8-37: selective calcitonin gene-related peptide (CGRP) receptor antagonist peptide,effect on cardiac function in WT hearts without I/R,WT hearts [1],no effect on cardiac function
same,"effect on PC-induced cardiac protection (LVEDP, LVDP, CF, +dP/dt, −dP/dt) in WT hearts",WT hearts [1],blocked PC-induced cardioprotective effects
same,effect on these parameters in TRPV1−/− hearts,TRPV1−/− hearts,no effect
same,effect on PC protection assessed by LDH levels after I/R in WT hearts,WT hearts [2],abolished
same,DSR induced-depressor effect after antagonist,male Wistar rats,9.3±3.3 mmHg
same,effect on hypotensive response to capsaicin,[3],blockade
same,effect of antagonist on NADA-induced depressor effect,[4]; NADA 4 mg/kg,abolished
same,prolonged depressor effect of NADA (decrease in MAP) after antagonist,[4]; HS diet,6±3 mmHg
same,prolonged depressor effect of NADA (decrease in MAP) after antagonist,[4]; NS diet,5±2 mmHg
same,effect on protective effect of OLDA in WT hearts,hearts of WT mice,abolished
COc1ccccc1CC(=N)N1C[C@@H]2C(=O)CCC(c3ccccc3)(c3ccccc3)[C@@H]2C1 [RP67580],effect on cardiac function in WT hearts without I/R,WT hearts [1],no effect on cardiac function
same,"effect on PC-induced cardiac protection (LVEDP, LVDP, CF, +dP/dt, −dP/dt) in WT hearts",WT hearts [1],abolished
same,effect on CF in WT hearts,WT hearts [1]; PC plus I/R,no effect on CF
same,effect on these parameters in TRPV1−/− hearts,TRPV1−/− hearts,no effect
same,effect on PC protection assessed by LDH levels after I/R in WT hearts,WT hearts [2],abolished
same,DSR induced-depressor effect after antagonist,male Wistar rats,9.4±2.3 mmHg
same,effect on protective effect of OLDA in WT hearts,hearts of WT mice,abolished
N=C(N)NC(=O)c1nc(Cl)c(N)nc1N [amiloride],effect on MAP (words),[5],no effect on MAP in any group
same,time of peak urine flow rate (UFR) after injection,[5],10 min
same,urine flow / urine sodium excretion (words),[5],significantly increased
same,effect on MAP (words),[5]; listed as Amiloride,no effect
same,urine flow / urine sodium excretion (words),[5]; listed as Amiloride,no effect
COc1cc(C(C)=O)ccc1O [apocynin],O2— production in renal cortex after ex vivo incubation,"renal cortex and medulla; apocynin 0.1 mM, CAP−HS rats",2.83 0.38 nmol_min—1_mg dry wt—1
same,O2— production in renal medulla after ex vivo incubation,"renal cortex and medulla; apocynin 0.1 mM, CAP−HS rats",1.73 0.23 nmol_min—1_mg dry wt—1
same,effect on O2— production,"renal cortex and medulla; apocynin, CON-HS, CON-NS and CAP−NS rats",no significant effects
same,effect on enhanced O2— levels in cortex and medulla of CAP−HS rats,renal cortex and medulla; preincubation of renal tissues with apocynin,prevented
"[Cl-].[Na+] [600 mM NaCl, NaCl]","Mean arterial pressure, Treatment",rats,117 ± 2 mmHg
same,"Mean arterial pressure, Baseline",rats,115 ± 2 mmHg
"[Cl-].[K+] [150 KCl, KCl]","Mean arterial pressure, Treatment",rats,125 ± 4 mmHg
same,"Mean arterial pressure, Baseline",rats,123 ± 6 mmHg
"OC[C@@H](O)[C@@H](O)[C@H](O)[C@H](O)CO [1200 mOsm Mannitol, Mannitol]","Mean arterial pressure, Treatment",rats,121 ± 7 mmHg
same,"Mean arterial pressure, Baseline",rats,121 ± 6 mmHg
NS(=O)(=O)c1cc2c(cc1Cl)NC(C(Cl)Cl)NS2(=O)=O (centres unmarked) [trichlormethiazide],effect on MAP (words),[5],"decreased MAP in Cap-HS but not in Cap-NS, Con-NS, and Con-HS rats"
same,time of peak urine flow rate (UFR) after injection,[5],10 min
same,urine flow / urine sodium excretion (words),[5],significantly increased
same,effect on MAP (words),[5]; listed as Trichlormethiazide,decreased MAP in Cap-HS rats only
same,urine flow / urine sodium excretion (words),[5]; listed as Trichlormethiazide,increased
NS(=O)(=O)c1cc(C(=O)O)c(NCc2ccco2)cc1Cl [furosemide],effect on MAP (words),[5],"decreased MAP in Cap-HS but not in Cap-NS, Con-NS, and Con-HS rats"
same,time of peak urine flow rate (UFR) after injection,[5],5 min
same,effect on MAP (words),[5]; listed as Furosemide,decreased MAP in Cap-HS rats only

# From US20080051454A1, “Compositions and methods for transient receptor potential vanilloid (TRPV) channel mediated treatments” (The Board of Trustees Operating Michigan State University, priority 2006, published 2008)
